According to patent publication US20180133211A1, “METHODS AND MATERIALS FOR PROMOTING BONE FORMATION” (Mayo Foundation for Medical Education and Research, priority 2015, published 2018):

What was measured:
RAW 264.7 cells [1] = experiment: Caspase activity (CASPASE-GLO); format: cell-based, mouse; conditions: RAW 264.7, 3 μM, 24 hours
Method: (§1) Caspase 3/7 and caspase 8 activities were measured by using the CASPASE-GLO® 3/7 and CASPASE-GLO® 8 assay Kit (Promega, Madison, Wis., USA) following manufactures instructions. Briefly, after treatments, cells were lysed, and substrate cleavage by caspases was measured by the generated luminescent signal with a 96 multi-well luminometer (Glomax, Promega). Each experiment was performed in quintuplicate and experiments were carried out twice.

MC3T3-E1 cells [2] = experiment: Caspase activity (CASPASE-GLO); format: cell-based, mouse; conditions: MC3T3-E1, 3 μM, 24 hours
Method: as §1

MLO-Y4 cells [3] = experiment: Caspase activity (CASPASE-GLO); format: cell-based, mouse; conditions: MLO-Y4, 3 μM, 24 hours
Method: as §1

RAW 264.7 cells [4] = experiment: Global cytosine 5-hydroxymethylation (5hmC); format: cell-based, mouse; conditions: RAW 264.7, 3 μM, 16 hours
Method: (§2) Cells were fixed with 4% paraformaldehyde in PBS for 20 minutes at room temperature and permeabilized with 0.2% triton in 4% paraformaldehyde in PBS. Thereafter, cell layers were blocked for 20 minutes with 10% blocking reagent (Roche) and incubated for one further hour with 0.5 μg/mL anti-5hmC antibody (Abgent). Afterwards, the cells were washed thrice with PBS and incubated for one further hour with an Alexa488 labeled secondary antibody (Invitrogen) diluted 1:300 in blocking buffer. Finally, nuclei were stained with Hoechst 33258 dye (Polysciences).
(§3) For immunostaining, cell slides were mounted with VECTASHIELD® mounting media, and immunofluorescence was visualized on a Leica laser-scanning microscope. No signal was found by using only the Alexa488 labeled secondary antibody (Invitrogen). For quantification of global cytosine 5hmC, the fluorescence in the plates was measured with a multiwell plate reader (Tecan). The amount of DNA (nuclei signal) was estimated using a standard curve prepared from calf thymus DNA (Roche). The signal of the fluorescence of the 5hmC staining was normalized to the amount of DNA. Also, in this case, no signals were found when only the Alexa488 labeled secondary antibody (Invitrogen) was used.

MC3T3-E1 cells [5] = experiment: Global cytosine 5-hydroxymethylation (5hmC); format: cell-based, mouse; conditions: MC3T3-E1, 3 μM, 16 hours
Method: as §2, §3

MLO-Y4 cells [6] = experiment: Global cytosine 5-hydroxymethylation (5hmC); format: cell-based, mouse; conditions: MLO-Y4, 3 μM, 16 hours
Method: as §2, §3

RAW 264.7 cells [7] = experiment: Cell metabolic activity (EZ4U, MTT similar assay); format: cell-based, mouse; conditions: read-out: half-maximal effective concentration (EC50), cell metabolic activity
Method: (§4) To assess cell metabolic activity, a commercially available, MTT similar assay (EZ4U; Biomedica, Vienna, Austria) was used. For this purpose, the cell lines were incubated with increasing concentrations of L- or DL-SFN.

MC3T3-E1 cells [8] = experiment: Cell metabolic activity (EZ4U, MTT similar assay); format: cell-based, mouse; conditions: 24 hours of treatment, read-out: half-maximal effective concentration (EC50), cell metabolic activity
Method: as §4

MLO-Y4 cells [9] = experiment: Cell metabolic activity (EZ4U, MTT similar assay); format: cell-based, mouse; conditions: 24 hours of treatment, read-out: half-maximal effective concentration (EC50), cell metabolic activity
Method: as §4

[10] = Tolerability of DL-SFN injections in mice; format: in vivo, mouse; conditions: 7.5 mM DL-SFN, 200 μL intraperitoneally every other day for five weeks
Method: Analysis of SFN on mice was performed using a protocol similar to that described elsewhere (Kong et al., Arthritis Rheum., 62:159-170 (2010)). In the experimental setting herein, eight week old sham operated or ovariectomized (OVX) C57B16/J female mice were purchased from Charles River laboratories. Mice were injected with 7.5 mM DL-SFN (200 μL of SFN at a concentration of 63.8 mg/mL/kg dissolved in ethanol and further diluted in PBS) intraperitoneally every other day for five weeks. Control mice received vehicle alone.

[11] = system: sham or OVX female C57BL/6 mice; experiment: microCT of femur in estrogen-deficient ovariectomy (OVX) model, GSK126 for 6 weeks; format: in vivo, mouse; conditions: for SMI / Tb.N / Tb.Sp / Tb.Th / BV/TV: distal femur metaphysis; for SMI / Tb.N / Tb.Sp / Tb.Th / Ct. Ar / Ct. BV / Ct. Mat.M.Dn / Ct. Ps.Ar / Ct. Th / Ec. Ar / BV/TV: 50 mg/kg, 6 weeks; for SMI / Tb.N / Tb.Sp / Tb.Th / Ct. Ar / Ct. BV / Ct. Mat.M.Dn / Ct. Ps.Ar / Ct. Th / Ec. Ar / Ct. TV / BV/TV: mean; for Ct. Ar / Ct. BV / Ct. Mat.M.Dn / Ct. Ps.Ar / Ct. Th / Ec. Ar / Ct. TV: femoral midshaft; for Ct. TV: GSK126 50 mg/kg daily IP 6 weeks; for BV/TV: trabecular bone
Method: The effects of GSK126 administration on the skeleton was evaluated in an estrogen-deficient ovariectomy (OVX) model. At about 12 weeks of age, female C57BL/6 mice underwent either sham or OVX surgeries. The following day, animals received daily IP injections of GSK126 or vehicle (DMSO) at 50 mg/kg body weight for 6 weeks as described herein. To label mineralizing bone surfaces and study bone formation rates, mice received subcutaneous injections of tetracycline (25 mg/kg) 14 days prior sacrifice and calcein (10 mg/kg) at 5 days and 24 hours before euthanasia.
The quantitative analysis of the femoral metaphysis was performed using a vivaCT 40 scanner (SCANCO Medical AG) with the following parameters: E=55 kVp, 1=145 μA, integration time=300 ms. A 10.5 μm voxel size using a threshold of 220 was applied to all scans at high resolution. Using two-dimensional data from scanned slices, 3D analysis was generated and used to calculate morphometric parameters defining trabecular bone mass and micro-architecture, including Bone Volume/Tissue volume (BV/TV), trabecular number (Tb.N.), trabecular thickness (Tb.Th.), trabecular spacing (Tb.Sp.), and the structure model index (SMI), an indicator of plate-like versus rod-like trabecular architecture.

C[S+]([O-])CCCCN=C=S (racemic) [DL-SFN]
Caspase 8 and Caspase 3/7 activity (RAW 264.7 cells [1]): stimulated
activities of the caspases 3/7 (MC3T3-E1 cells [2]): significant increase
activity of caspase 8 (MC3T3-E1 cells [2]): significantly increased
activities of the caspases 3/7 (MLO-Y4 cells [3]): significant increase
activity of caspase 8 (MLO-Y4 cells [3]): significantly increased
increase of global levels of 5hmC (RAW 264.7 cells [4]): ~3 fold
global 5hmC (MC3T3-E1 cells [5]): significant global increase
5hmC levels (MLO-Y4 cells [6]): did not elevate
EC50 (RAW 264.7 cells [7]): ~6.01 µM
EC50 (MC3T3-E1 cells [8]): ~13 µM
EC50 (MLO-Y4 cells [9]): ~6 µM
apparent adverse effects (weight loss, physical appearance, behavior) [10]: did not show apparent adverse effects

CC[C@H](C)n1cc(C)c2c(C(=O)NCc3c(C)cc(C)[nH]c3=O)cc(-c3ccc(N4CCNCC4)nc3)cc21 [GSK126, N-[(1,2-dihydro-4,6-dimethyl-2-oxo-3-pyridinyl)methyl]-3-methyl-1-[(1S)-1-methylpropyl]-6-[6-(1-piperazinyl)-3-pyridinyl]-1H-indole-4-carboxamide]
SMI ([11]; OVX): 3.758
Tb.N ([11]; OVX): 2.102 mm^−1
Tb.Sp ([11]; OVX): 0.499 mm
Tb.Th ([11]; OVX): 0.047 mm
Ct. Ar ([11]; OVX): 0.771 mm^2
Ct. BV ([11]; OVX): 0.405 mm^3
Ct. Mat.M.Dn ([11]; OVX): 1067 mgHA/cm^3
Ct. Ps.Ar ([11]; OVX): 0.809 mm^2
Ct. Th ([11]; OVX): 0.19 mm
Ec. Ar ([11]; OVX): 0.038 mm^2
Ct. TV ([11]; OVX): 0.425 mm^3
BV/TV ([11]; OVX): 1.404%
SMI ([11]; SHAM): 4.168
Tb.N ([11]; SHAM): 2.496 mm^−1
Tb.Sp ([11]; SHAM): 0.402 mm
Tb.Th ([11]; SHAM): 0.042 mm
Ct. Ar ([11]; SHAM): 0.782 mm^2
Ct. BV ([11]; SHAM): 0.411 mm^3
Ct. Mat.M.Dn ([11]; SHAM): 1065 mgHA/cm^3
Ct. Ps.Ar ([11]; SHAM): 0.82 mm^2
Ct. Th ([11]; SHAM): 0.197 mm
Ec. Ar ([11]; SHAM): 0.037 mm^2
Ct. TV ([11]; SHAM): 0.430 mm^3
BV/TV ([11]; SHAM): 1.642%
OVX-induced cortical bone loss ([11]; ovariectomized female mice, daily regimen, in words): mitigated

C[S+]([O-])CCCCN=C=S [L-SFN]
Caspase 8 and Caspase 3/7 activity (RAW 264.7 cells [1]): stimulated
activity of caspase 8 (MC3T3-E1 cells [2]): significantly increased
activity of caspase 8 (MLO-Y4 cells [3]): significantly increased
increase of global levels of 5hmC (RAW 264.7 cells [4]): < 2 fold
global 5hmC (MC3T3-E1 cells [5]): significant global increase
5hmC levels (MLO-Y4 cells [6]): did not elevate
EC50 (RAW 264.7 cells [7]): ~10.1 µM
EC50 (MC3T3-E1 cells [8]): ~48 µM
EC50 (MLO-Y4 cells [9]): ~11 µM
